Measured values: paper PMC10527105, “Chirality Matters: Fine-Tuning of Novel Monoamine Reuptake Inhibitors Selectivity through Manipulation of Stereochemistry” (Biomolecules, 2023)
“And” between values parts separate entries of the source, which are not always exact repeats. Equal entries are not always repeated. Where two headings read alike, the source gives them in different places.

Assays:
Type in all cases: cell-based
[1] = molecular target: T1, human dopamine transporter/SLC6A3 (DAT) (Homo sapiens, UniProt Q01959); test: Cellular uptake experiments: [3H]-dopamine reuptake inhibition in transporter-expressing HEK293 cells; conditions: cells stably expressing DAT, [3H]-dopamine 1 µM, screening cut-off 50 µM
T1 construct: expressed in transfected cells; host or cells: HEK293
T1 sequence (Q01959 whole entry): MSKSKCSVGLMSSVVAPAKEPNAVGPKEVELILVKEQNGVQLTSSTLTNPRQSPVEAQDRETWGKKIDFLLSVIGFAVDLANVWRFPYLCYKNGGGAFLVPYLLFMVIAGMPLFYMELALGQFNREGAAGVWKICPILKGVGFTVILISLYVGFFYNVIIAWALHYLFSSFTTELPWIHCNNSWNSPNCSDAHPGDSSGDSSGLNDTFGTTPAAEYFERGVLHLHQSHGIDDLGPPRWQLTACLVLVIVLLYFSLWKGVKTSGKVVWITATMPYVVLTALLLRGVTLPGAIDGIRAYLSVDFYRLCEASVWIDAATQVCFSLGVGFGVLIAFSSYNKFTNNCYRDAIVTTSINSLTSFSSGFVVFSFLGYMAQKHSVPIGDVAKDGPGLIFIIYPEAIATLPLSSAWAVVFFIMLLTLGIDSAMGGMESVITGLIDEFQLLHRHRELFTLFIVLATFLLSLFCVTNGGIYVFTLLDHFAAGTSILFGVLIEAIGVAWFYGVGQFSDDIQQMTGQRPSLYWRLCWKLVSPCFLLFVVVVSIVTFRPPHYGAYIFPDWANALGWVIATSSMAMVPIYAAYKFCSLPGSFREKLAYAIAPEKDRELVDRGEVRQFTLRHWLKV
Method: (§1) Cell culture. Human embryonic kidney (HEK) 293 or SK-N-MC (human neuroblastoma) cells were grown in minimum essential medium with Earle’s salts and L-glutamine, 10% heat-inactivated fetal bovine serum, and 50 mg/L gentamicin. Cells were grown in 100- or 60-mm diameter tissue culture dishes (polystyrene, Falcon) at 37 °C under an atmosphere of 5% CO2/95% air. The human dopamine transporter/SLC6A3 (DAT), noradrenaline transporter/SLC6A2 (NET), or human serotonin transporter/SLC6A4 (SERT) cDNA was stably expressed using methods as described previously.
(§2) Cellular uptake experiments. The transporter-expressing HEK293 cells were seeded in poly-D-lysine-coated 24-well plates (1 × 10^5 cells/well) and, one day later, each well was washed with 0.5 mL uptake buffer and incubated with 0.5 mL buffer containing various concentrations of the drugs. Uptake was started by the addition of [^3H]-dopamine, [^3H]-noradrenaline, or [^3H]-serotonin at a final concentration of 1 µM (specific activity 0.14 Ci/mmol) after 5 min of preincubation. After incubation for 2.5 min (SERT-cells: 5 min) at 25 °C, it was stopped by aspirating the uptake buffer and washing each well twice with 1 mL ice-cold buffer. Nonspecific uptake was determined in the presence of 10 µM mazindol (DAT- and NET-cells) or 10 µM clomipramine (SERT-cells). The radioactivity remaining in each well was determined by incubating with 0.4 mL 1% sodium dodecyl sulphate and transferring this solution into scintillation vials containing 3 mL of scintillation cocktail (Ultima Gold MV, Packard, Dovners Grove, IL, USA). The uptake buffer consisted of (mmol/L): 4 Tris–HCl; 6.25 4-(2-hydroxyethyl)-1-piperazineethanesulfonic acid (HEPES); 120 NaCl; 5 KCl; 1.2 CaCl2; 1.2 MgSO4; 5.6 D-glucose; 0.5 ascorbic acid; pH 7.1.

[2] = molecular target: T2, human serotonin transporter/SLC6A4 (SERT) (Homo sapiens, UniProt P31645); test: Cellular uptake experiments: [3H]-serotonin reuptake inhibition in transporter-expressing HEK293 cells
T2 construct: expressed in transfected cells; host or cells: HEK293
T2 sequence (P31645 whole entry): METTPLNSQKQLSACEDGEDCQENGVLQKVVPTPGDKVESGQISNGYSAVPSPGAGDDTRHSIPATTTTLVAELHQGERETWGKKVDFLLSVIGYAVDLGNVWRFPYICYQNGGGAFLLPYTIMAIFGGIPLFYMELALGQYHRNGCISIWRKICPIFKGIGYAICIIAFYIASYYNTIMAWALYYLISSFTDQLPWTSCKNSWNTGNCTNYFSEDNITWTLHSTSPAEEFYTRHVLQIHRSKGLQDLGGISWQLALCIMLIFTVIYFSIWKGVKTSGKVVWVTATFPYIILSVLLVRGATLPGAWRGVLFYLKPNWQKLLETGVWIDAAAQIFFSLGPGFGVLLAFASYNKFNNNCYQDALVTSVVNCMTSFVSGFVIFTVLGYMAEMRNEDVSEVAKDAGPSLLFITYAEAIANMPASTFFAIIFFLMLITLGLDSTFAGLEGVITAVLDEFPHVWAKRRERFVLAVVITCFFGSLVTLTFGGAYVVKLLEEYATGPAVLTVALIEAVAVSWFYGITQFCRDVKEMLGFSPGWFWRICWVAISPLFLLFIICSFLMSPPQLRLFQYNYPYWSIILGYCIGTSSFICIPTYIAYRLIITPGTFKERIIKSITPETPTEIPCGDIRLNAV
Method: as §1, §2

[3] = molecular target: T3, noradrenaline transporter/SLC6A2 (NET) (Homo sapiens, UniProt P23975); test: Cellular uptake experiments: [3H]-noradrenaline reuptake inhibition in transporter-expressing HEK293 cells
T3 construct: expressed in transfected cells; host or cells: HEK293
T3 sequence (P23975 whole entry): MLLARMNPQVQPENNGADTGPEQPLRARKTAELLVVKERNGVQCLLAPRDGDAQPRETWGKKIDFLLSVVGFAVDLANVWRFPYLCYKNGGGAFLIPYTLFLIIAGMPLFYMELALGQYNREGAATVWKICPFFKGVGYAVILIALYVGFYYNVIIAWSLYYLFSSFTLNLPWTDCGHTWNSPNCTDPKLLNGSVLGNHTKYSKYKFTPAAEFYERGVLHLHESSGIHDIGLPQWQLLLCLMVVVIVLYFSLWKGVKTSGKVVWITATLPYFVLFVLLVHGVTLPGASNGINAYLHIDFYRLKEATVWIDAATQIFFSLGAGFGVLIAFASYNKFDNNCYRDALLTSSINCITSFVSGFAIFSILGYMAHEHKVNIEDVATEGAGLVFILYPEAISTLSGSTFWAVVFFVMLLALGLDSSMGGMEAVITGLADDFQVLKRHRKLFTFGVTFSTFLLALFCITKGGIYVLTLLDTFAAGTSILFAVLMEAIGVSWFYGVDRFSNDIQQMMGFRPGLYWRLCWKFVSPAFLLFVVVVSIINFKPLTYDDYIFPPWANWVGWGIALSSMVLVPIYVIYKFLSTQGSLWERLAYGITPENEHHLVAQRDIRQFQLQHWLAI
Method: as §1, §2

[4] = read-out: Reuptake Inhibition (IC50 ± SE, µM) DAT
[5] = cells stably expressing SERT; [3H]-serotonin 1 µM; screening cut-off 50 µM; read-out: Reuptake Inhibition (IC50 ± SE, µM) SERT
[6] = cells stably expressing NET, [3H]-noradrenaline 1 µM, screening cut-off 50 µM, read-out: Reuptake Inhibition (IC50 ± SE, µM) NET
[7] = Reuptake Inhibition (IC50 ± SE, µM) DAT
[8] = read-out: Reuptake Inhibition (IC50 ± SE, µM) SERT; cells stably expressing SERT; [3H]-serotonin 1 µM; screening cut-off 50 µM
[9] = read-out: Reuptake Inhibition (IC50 ± SE, µM) NET, cells stably expressing NET, [3H]-noradrenaline 1 µM, screening cut-off 50 µM
[10] = Reuptake Inhibition (IC50 ± SE, µM) NET, cells stably expressing NET, [3H]-noradrenaline 1 µM, screening cut-off 50 µM
[11] = Reuptake Inhibition (IC50 ± SE, µM) SERT, cells stably expressing SERT; [3H]-serotonin 1 µM; screening cut-off 50 µM

In the case of `Cc1ccccc1C(c1ccccc1)[S+]([O-])Cc1cccs1` (stereo not drawn) [Compound 7l, 2-(((phenyl(o-tolyl)methyl)sulfinyl)methyl)thiophene], the IC50 [1, 4] is reported as 3.8 ± 0.5 µM, the IC50 [2, 5] is reported as over 50 µM and the IC50 [3, 6] is reported as over 50 µM.
In the case of `[O-][S+](Cc1cccs1)C(c1ccccc1)c1cccc(I)c1` (stereo not drawn) [Compound 7j, 2-((((3-iodophenyl)(phenyl)methyl)sulfinyl)methyl)thiophene], the IC50 [1, 7] is reported as 1.46 ± 0.06 µM, the IC50 [2, 8] is reported as over 50 µM and the IC50 [3, 9] is reported as over 50 µM.
`Cc1ccc(C(c2ccccc2)[S+]([O-])Cc2cccs2)cc1` (stereo not drawn) [Compound 5n, 2-(((phenyl(p-tolyl)methyl)sulfinyl)methyl)thiophene] was tested, and the IC50 [1, 4] was 3.97 ± 0.21 µM, the IC50 [2, 5] was over 50 µM and the IC50 [3, 10] was over 50 µM.
Work on `[O-][S+](Cc1cccs1)C(c1ccccc1)c1ccc(F)cc1` (stereo not drawn) [Compound 7c, 2-((((4-fluorophenyl)(phenyl)methyl)sulfinyl)methyl)thiophene] yielded an IC50 [1, 4] of 2.1 ± 0.6 µM, an IC50 [2, 5] of over 50 µM and an IC50 [3, 6] of over 50 µM.
In the case of `COc1ccc([C@H](c2ccccc2)[S@@+]([O-])Cc2cccs2)cc1` [Compound 5t, (S,S)-2-((((4-methoxyphenyl)(phenyl)methyl)sulfinyl)methyl)thiophene], the IC50 [1, 7] is reported as 16 ± 6 µM, the IC50 [2, 11] is reported as over 50 µM and the IC50 [3, 10] is reported as over 50 µM.
`[O-][S+](Cc1cccs1)C(c1ccccc1)c1ccccc1C(F)(F)F` (stereo not drawn) [Compound 7o, 2-(((phenyl(2-(trifluoromethyl)phenyl)methyl)sulfinyl)methyl)thiophene] was tested, and the IC50 [1, 7] was over 50 µM, the IC50 [2, 8] was over 50 µM and the IC50 [3, 10] was over 50 µM.
Molecule `Cc1cccc([C@@H](c2ccccc2)[S@+]([O-])Cc2cccs2)c1` [Compound 8m, (R,R)-2-(((phenyl(m-tolyl)methyl)sulfinyl)methyl)thiophene] has an IC50 [1, 7] of 1.56 ± 0.25 µM, an IC50 [2, 11] of over 50 µM and an IC50 [3, 10] of over 50 µM.
For `[O-][S@@+](Cc1cccs1)[C@H](c1ccccc1)c1cccc(Br)c1` [Compound 5h, (S,R)-2-((((3-bromophenyl)(phenyl)methyl)sulfinyl)methyl)thiophene], the IC50 [1, 7] was 1.8 ± 0.4 µM, the IC50 [2, 11] was over 50 µM and the IC50 [3] was over 50 µM.
`[O-][S@@+](Cc1cccs1)[C@@H](c1ccccc1)c1cccc(Cl)c1` [Compound 7e, (S,S)-2-((((3-chlorophenyl)(phenyl)methyl)sulfinyl)methyl)thiophene] gave an IC50 [1, 7] of 0.63 ± 0.17 µM, an IC50 [2, 11] of over 50 µM and an IC50 [3, 10] of 29 ± 4 µM.
With `[O-][S+](Cc1cccs1)C(c1ccccc1)c1cccc(I)c1` (stereo not drawn) [Compound 8j, 2-((((3-iodophenyl)(phenyl)methyl)sulfinyl)methyl)thiophene] the IC50 [1, 7] was 1.5 ± 0.17 µM, the IC50 [2, 8] was over 50 µM and the IC50 [3, 9] was over 50 µM.
In the case of `[O-][S@@+](Cc1cccs1)[C@H](c1ccccc1)c1ccc(I)cc1` [Compound 5k, (S,R)-2-((((4-iodophenyl)(phenyl)methyl)sulfinyl)methyl)thiophene], the IC50 [1, 7] is reported as 5.1 ± 0.6 µM, the IC50 [2, 11] is reported as over 50 µM and the IC50 [3, 10] is reported as over 50 µM.
Molecule `[O-][S@@+](Cc1cccs1)[C@H](c1ccccc1)c1cccc(Cl)c1` [Compound 5e, (S,R)-2-((((3-chlorophenyl)(phenyl)methyl)sulfinyl)methyl)thiophene] has an IC50 [1, 7] of 3 ± 0.1 µM, an IC50 [2, 11] of over 50 µM and an IC50 [3, 10] of over 50 µM.
`COc1cccc(C(c2ccccc2)[S+]([O-])Cc2cccs2)c1` (stereo not drawn) [Compound 6s, 2-((((3-methoxyphenyl)(phenyl)methyl)sulfinyl)methyl)thiophene] was tested, and the IC50 [1, 7] was 5.41 ± 0.99 µM, the IC50 [2, 11] was 35 ± 3 µM and the IC50 [3, 9] was over 50 µM.
`Cc1ccc([C@@H](c2ccccc2)[S@+]([O-])Cc2cccs2)cc1` [Compound 8n, (R,R)-2-(((phenyl(p-tolyl)methyl)sulfinyl)methyl)thiophene] was tested, and the IC50 [1, 4] was 4 µM and 4.01 µM, the IC50 [2, 5] was 25 ± 4 µM and the IC50 [3, 10] was over 50 µM.
Work on `[O-][S@+](Cc1cccs1)[C@@H](c1ccccc1)c1cccc(Cl)c1` [Compound 6e, (R,S)-2-((((3-chlorophenyl)(phenyl)methyl)sulfinyl)methyl)thiophene] yielded an IC50 [1, 7] of 14.1 ± 0.5 µM, an IC50 [2, 11] of over 50 µM and an IC50 [3, 10] of over 50 µM.
Molecule `[O-][S+](Cc1cccs1)C(c1ccc(F)cc1)c1ccc(Cl)cc1` (stereo not drawn) [Compound 6u, 2-((((4-chlorophenyl)(4-fluorophenyl)methyl)sulfinyl)methyl)thiophene] has an IC50 [1, 7] of 12 ± 2 µM, an IC50 [2, 8] of over 50 µM and an IC50 [3, 9] of over 50 µM.
Work on `COc1ccc([C@@H](c2ccccc2)[S@@+]([O-])Cc2cccs2)cc1` [Compound 7t, (S,R)-2-((((4-methoxyphenyl)(phenyl)methyl)sulfinyl)methyl)thiophene] yielded an IC50 [1, 7] of 15 ± 2 µM, an IC50 [2, 11] of over 50 µM and an IC50 [3, 10] of over 50 µM.
Molecule `Cc1ccc([C@H](c2ccccc2)[S@@+]([O-])Cc2cccs2)cc1` [Compound 7n, (S,S)-2-(((phenyl(p-tolyl)methyl)sulfinyl)methyl)thiophene] has an IC50 [1, 4] of 1.63 ± 0.1 µM, an IC50 [2, 5] of over 50 µM and an IC50 [3, 10] of over 50 µM.
`[O-][S@@+](Cc1cccs1)[C@@H](c1ccccc1)c1ccccc1Cl` [Compound 6d, (S,S)-2-((((2-chlorophenyl)(phenyl)methyl)sulfinyl)methyl)thiophene] was tested, and the IC50 [1, 4] was 14.4 ± 2.4 µM, the IC50 [2, 5] was over 50 µM and the IC50 [3, 6] was over 50 µM.
With `[O-][S+](Cc1cccs1)C(c1ccccc1)c1ccccc1C(F)(F)F` (stereo not drawn) [Compound 6o, 2-(((phenyl(2-(trifluoromethyl)phenyl)methyl)sulfinyl)methyl)thiophene] the IC50 [1, 7] was over 50 µM, the IC50 [2, 8] was over 50 µM and the IC50 [3, 10] was over 50 µM.
`[O-][S+](Cc1cccs1)C(c1ccc(F)cc1)c1ccc(Cl)cc1` (stereo not drawn) [Compound 8u, 2-((((4-chlorophenyl)(4-fluorophenyl)methyl)sulfinyl)methyl)thiophene] showed an IC50 [1, 7] of 5.4 ± 1 µM, an IC50 [2, 8] of over 50 µM and an IC50 [3, 9] of over 50 µM.
`[O-][S+](Cc1cccs1)C(c1ccccc1)c1ccc(C(F)(F)F)cc1` (stereo not drawn) [Compound 8q, 2-(((phenyl(4-(trifluoromethyl)phenyl)methyl)sulfinyl)methyl)thiophene] showed an IC50 [1, 7] of 21 ± 2 µM, an IC50 [2, 11] of 4.7 ± 0.5 µM and an IC50 [3, 9] of over 50 µM.
Molecule `Cc1ccccc1C(c1ccccc1)[S+]([O-])Cc1cccs1` (stereo not drawn) [Compound 8l, 2-(((phenyl(o-tolyl)methyl)sulfinyl)methyl)thiophene] has an IC50 [1, 4] of 9.5 ± 0.9 µM, an IC50 [2, 5] of over 50 µM and an IC50 [3, 6] of over 50 µM.
`[O-][S+](Cc1cccs1)C(c1ccccc1)c1cccc(F)c1` (stereo not drawn) [Compound 6b, 2-((((3-fluorophenyl)(phenyl)methyl)sulfinyl)methyl)thiophene] showed an IC50 [1, 4] of 28 ± 7 µM, an IC50 [2, 5] of over 50 µM and an IC50 [3, 6] of over 50 µM.
With `COc1ccccc1C(c1ccccc1)[S+]([O-])Cc1cccs1` [Compound 8r, (S,S)-2-((((2-methoxyphenyl)(phenyl)methyl)sulfinyl)methyl)thiophene] the IC50 [1, 7] was over 50 µM, the IC50 [2, 11] was over 50 µM and the IC50 [3, 10] was over 50 µM.
In the case of `COc1cccc(C(c2ccccc2)[S+]([O-])Cc2cccs2)c1` (stereo not drawn) [Compound 5s, 2-((((3-methoxyphenyl)(phenyl)methyl)sulfinyl)methyl)thiophene], the IC50 [1, 7] is reported as 2.89 ± 0.47 µM, the IC50 [2, 11] is reported as over 50 µM and the IC50 [3, 10] is reported as over 50 µM.
In the case of `[O-][S+](Cc1cccs1)C(c1ccccc1)c1cccc(F)c1` (stereo not drawn) [Compound 7b, 2-((((3-fluorophenyl)(phenyl)methyl)sulfinyl)methyl)thiophene], the IC50 [1, 4] is reported as 2.3 ± 0.2 µM, the IC50 [2, 5] is reported as over 50 µM and the IC50 [3, 6] is reported as over 50 µM.
With `Cc1cccc([C@H](c2ccccc2)[S@@+]([O-])Cc2cccs2)c1` [Compound 7m, (S,S)-2-(((phenyl(m-tolyl)methyl)sulfinyl)methyl)thiophene] the IC50 [1, 7] was 1.2 ± 0.09 µM, the IC50 [2, 11] was over 50 µM and the IC50 [3, 10] was 49 ± 3 µM.
For `[O-][S+](Cc1cccs1)C(c1ccccc1)c1ccc(F)cc1` (stereo not drawn) [Compound 8c, 2-((((4-fluorophenyl)(phenyl)methyl)sulfinyl)methyl)thiophene], the IC50 [1, 4] was 5.2 ± 0.1 µM, the IC50 [2, 5] was 24 ± 6 µM and the IC50 [3, 6] was over 50 µM.
Work on `COc1ccccc1[C@@H](c1ccccc1)[S@+]([O-])Cc1cccs1` [Compound 5r, (R,R)-2-((((2-methoxyphenyl)(phenyl)methyl)sulfinyl)methyl)thiophene] yielded an IC50 [1, 7] of 31 ± 8 µM, an IC50 [2, 11] of over 50 µM and an IC50 [3, 10] of over 50 µM.
